Test results taken from ChEMBL document CHEMBL3351617, “Concise syntheses of 7-anilino-indoline-N-benzenesulfonamides as antimitotic and vascular disrupting agents” (Bioorg Med Chem, 2014).
The source made the active and inactive calls. The calls are words filed in the database; no cut-off is given here.

How the values were obtained:
[1] = Antiproliferative activity against human KB-S15 cells; assay type: functional, cell-based
[2] = Antiproliferative activity against human KB-VIN10 cells; assay type: functional, cell-based
[3] = Antiproliferative activity against human KB-7d cells; assay type: functional, cell-based; details: KB7D
[4] = tested on: HT-29; assay: Antiproliferative activity against human HT-29 cells; assay type: functional, cell-based
[5] = Retention time of the compound by HPLC; assay type: physicochemical
[6] = Antiproliferative activity against human MKN45 cells; assay type: functional, cell-based; details: MKN-45
[7] = tested on: KB; assay: Antiproliferative activity against human KB cells; assay type: functional, cell-based
[8] = molecular target: T1, Tubulin (Homo sapiens) (UniProt P68371+Q9H4B7+P0DPH7+P68366+Q13509+Q71U36+P04350+Q3ZCM7+P07437+P68363+Q9BQE3+Q6PEY2+Q13885+Q9BVA1+Q9BUF5); assay: Displacement of [3H]colchicine from long-chain biotin-labeled tubulin (unknown origin) at 5 uM after 2 hrs by competition-binding scintillation proximity assay; assay type: protein-complex assay
[9] = tested on: KB; assay: Ratio of ABT751 IC50 to compound IC50 for human KB cells; assay type: functional
[10] = molecular target: T1, Tubulin (Homo sapiens); assay: Displacement of [3H]colchicine from long-chain biotin-labeled tubulin (unknown origin) at 1 uM after 2 hrs by competition-binding scintillation proximity assay; assay type: protein-complex assay
[11] = molecular target: Tubulin; assay: Inhibition of tubulin (unknown origin) polymerization by spectrophotometry; assay type: protein-complex assay, Homo sapiens
[12] = tested on: MKN-45; assay: Ratio of ABT751 IC50 to compound IC50 for human MKN45 cells; assay type: functional
[13] = tested on: HT-29; assay: Ratio of ABT751 IC50 to compound IC50 for human HT-29 cells; assay type: functional
[14] = tested on: KB; assay: Cell cycle arrest in human KB cells assessed as reduction of cells at S phase at 25 to 400 nM after 24 hrs using propidium iodide staining by flow cytometry; assay type: functional, cell-based
[15] = tested on: HUVEC; assay: Cytotoxicity against HUVECs assessed as reduction in cell viability at 100 nM; assay type: cell-based; details: human, 0.1 µM
[16] = molecular target: T1, Tubulin (Homo sapiens); assay: Inhibition of MAP-rich tubulin (unknown origin) polymerization at 10 uM measured every 30 seconds for 30 mins by spectrophotometry; assay type: protein-complex assay
[17] = tested on: HUVEC; assay: Disruption of vasculature in HUVECs assessed as inhibition of VEGF-induced capillary tube formation by microscopy; assay type: functional, cell-based; details: Homo sapiens
[18] = tested on: KB; assay: Cell cycle arrest in human KB cells assessed as accumulation at G2/M phase after 24 hrs using propidium iodide staining by flow cytometry; assay type: functional, cell-based
[19] = molecular target: T1, Tubulin (Homo sapiens); assay: Competitive inhibition of [3H]colchicine binding to long-chain biotin-labeled tubulin (unknown origin) after 2 hrs by double-reciprocal plot analysis; assay type: protein-complex assay
[20] = tested on: KB; assay: Cell cycle arrest in human KB cells assessed as reduction of cells at G1 phase at 25 to 400 nM after 24 hrs using propidium iodide staining by flow cytometry; assay type: functional, cell-based
[21] = molecular target: T1, Tubulin (Homo sapiens); assay: Inhibition of MAP-rich tubulin (unknown origin) polymerization measured every 30 seconds for 30 mins by spectrophotometry; assay type: protein-complex assay
[22] = tested on: KB; assay: Cell cycle arrest in human KB cells assessed as accumulation of cells at sub-G1 phase at 100 nM after 24 hrs using propidium iodide staining by flow cytometry; assay type: functional, cell-based
[23] = tested on: HUVEC; assay: Disruption of vasculature in HUVECs assessed as inhibition of VEGF-induced capillary tube formation at 100 nM by microscopy; assay type: functional, cell-based; details: Homo sapiens

| IC50 [4] [nM] | Retention_time [5] [min] | IC50 [7] [nM] | Structure (SMILES) | IC50 [3] [nM] | IC50 [6] [nM] | further results |
| --- | --- | --- | --- | --- | --- | --- |
| – | – | – | COc1cc([C@@H]2c3cc4c(cc3[C@@H](O[C@@H]3O[C@@H]5CO[C@@H](C)O[C@H]5[C@H](O)[C@H]3O)[C@H]3COC(=O)[C@H]23)OCO4)cc(OC)c1O [ETOPOSIDE] | 54000 | – | IC50 [1]: 3500 nM; IC50 [2]: 23000 nM |
| 968 | 45.49 | 412 | COc1ccc(S(=O)(=O)N2CCc3cccc(Nc4ccc(F)c(F)c4)c32)cc1 | – | 726 | – |
| 511 | 32 | 239 | COc1ccc(S(=O)(=O)N2CCc3cccc(Nc4ccc(O)cc4)c32)cc1 | – | 493 | – |
| 2380 | 33.94 | 846 | COc1ccc(S(=O)(=O)N2CCc3cccc(Nc4ccc(C(=O)O)cc4)c32)cc1 | – | 1390 | – |
| 588 | 44.71 | 557 | COc1ccc(S(=O)(=O)N2CCc3cccc(Nc4ccc(F)cc4)c32)cc1 | – | 563 | – |
| 678 | 42.74 | 93.5 | COC(=O)c1ccc(Nc2cccc3c2N(S(=O)(=O)c2ccc(OC)cc2)CC3)cc1 | – | 487 | inhibition [8]: 66.9%; Ratio IC50 [9]: 3; inhibition [10]: 41.4%; IC50 [11]: 4700 nM |
| – | – | – | CC[C@]1(O)C[C@H]2CN(CCc3c([nH]c4ccccc34)[C@@](C(=O)OC)(c3cc4c(cc3OC)N(C=O)[C@H]3[C@@](O)(C(=O)OC)[C@H](OC(C)=O)[C@]5(CC)C=CCN6CC[C@]43[C@@H]65)C2)C1 [VINCRISTINE] | 1.2 | – | – |
| 803 | 43.47 | 1200 | COc1ccc(Nc2cccc3c2N(S(=O)(=O)c2ccc(OC)cc2)CC3)cc1 | – | 487 | – |
| – | – | – | CC(=O)O[C@H]1C(=O)[C@@]2(C)[C@H]([C@H](OC(=O)c3ccccc3)[C@]3(O)C[C@H](OC(=O)[C@H](O)[C@@H](NC(=O)c4ccccc4)c4ccccc4)C(C)=C1C3(C)C)[C@]1(OC(C)=O)CO[C@@H]1C[C@@H]2O [PACLITAXEL] | 7.9 | – | – |
| 191 | 42.28 | 101 | COc1ccc(S(=O)(=O)N2CCc3cccc(Nc4ccc([N+](=O)[O-])cc4)c32)cc1 | 115 | 107 | inhibition [8]: 69.3%; IC50 [1]: 95.4 nM; IC50 [2]: 109 nM; Ratio IC50 [12]: 1.5; inhibition [10]: 44%; Ratio IC50 [13]: 1.5; IC50 [11]: 3700 nM |
| 343 | 44.81 | 342 | COc1ccc(S(=O)(=O)N2CCc3cccc(Nc4ccccc4)c32)cc1 | – | 187 | – |
| 658 | 48.11 | 1100 | COc1ccc(S(=O)(=O)N2CCc3cccc(Nc4ccc(Cl)cc4)c32)cc1 | – | 463 | – |
| 149 | 40.79 | 49.7 | COc1ccc(S(=O)(=O)N2CCc3cccc(Nc4ccc(C#N)cc4)c32)cc1 | 71.1 | 92 | Activity [14]: Active; inhibition [8]: 86.4%; Activity [15]: Non-toxic; IC50 [1]: 77.3 nM; inhibition [16]: Active; IC50 [2]: 71.9 nM; Activity [17]: Dose-dependent effect; Activity [18]: Dose-dependent effect; inhibition [10]: 83.6%; inhibition [19]: Active; IC50 [11]: 3200 nM; Activity [20]: Active; inhibition [21]: Dose-dependent effect; Activity [22]: Active; Activity [23]: Active |
